We go through 1 compound from patent US20010041737A1, “Enhancing the toxicity of warfarin in rodents” (priority 1998, published 2001).

Structures can show the parent of a compound that is named as a salt.

For this assay, the system named is warfarin-resistant Norway rats from Chicago, Illinois. In words: Example II: feeding test of 50 ppm warfarin bait with or without antibiotic. In kind it is in vivo. To be noted: conclusion in words from the Example II mortality figures.

On to `CN(C)[C@@H]1C(O)=C(C(N)=O)C(=O)[C@@]2(O)C(O)=C3C(=O)c4c(O)cccc4[C@@](C)(O)[C@H]3C[C@@H]12` [tetracycline hydrochloride], for which the “Effect of the antibiotic on the toxicity of warfarin” value was “appears to enhance the toxicity of warfarin”.
